Reference: ChEMBL document CHEMBL5550132, “Structure-activity relationship in NOD2 agonistic muramyl dipeptides” (Eur J Med Chem, 2024)
One block for each molecule: values may come before it.

Assays:
[1] = biological target: T1, Nuclear factor NF-kappa-B complex (Homo sapiens) (UniProt Q00653+P19838+Q04206); test: Activation of NF-KappaB (unknown origin) expressed in HEK293T cells assessed as fold change at 10 ng incubated for 12 hrs by Renilla luciferase assay; format: cell-based; settings: filed as activator
[2] = biological target: T1, Nuclear factor NF-kappa-B complex (Homo sapiens); test: Activation of NF-KappaB (unknown origin) expressed in HEK293T cells assessed as fold change at 100 ng incubated for 12 hrs by Renilla luciferase assay; format: cell-based; settings: filed as activator
[3] = biological target: T1, Nuclear factor NF-kappa-B complex (Homo sapiens); test: Activation of NF-KappaB (unknown origin) expressed in HEK293T cells assessed as fold change at 1000 ng incubated for 12 hrs by Renilla luciferase assay; format: cell-based; settings: filed as activator
[4] = biological target: Nucleotide-binding oligomerization domain-containing protein 2 (Homo sapiens, UniProt Q9HC29); test: Activation of NOD2 in HEK293T cells; format: cell-based; settings: filed as activator
[5] = biological target: T1, Nuclear factor NF-kappa-B complex (Homo sapiens); test: Activation of NF-KappaB in HEK293T cells assessed as fold change; format: cell-based; settings: filed as activator
[6] = biological target: T1, Nuclear factor NF-kappa-B complex (Homo sapiens); test: Activation of NF-kappaB in HEK-Blue hNOD2 cells assessed as fold change at 10 nM incubated for 48 hrs by SEAP reporter assay; format: cell-based; settings: filed as activator
[7] = biological target: T1, Nuclear factor NF-kappa-B complex (Homo sapiens); test: Activation of NF-kappaB in HEK-Blue hNOD2 cells assessed as fold change at 100 nM incubated for 48 hrs by SEAP reporter assay; format: cell-based; settings: filed as activator
[8] = biological target: T1, Nuclear factor NF-kappa-B complex (Homo sapiens); test: Activation of NF-kappaB in HEK-Blue hNOD2 cells assessed as fold change at 1000 nM incubated for 48 hrs by SEAP reporter assay; format: cell-based; settings: filed as activator
Cavia porcellus [9] = organism: Cavia porcellus; test: Induction of delayed type hypersensitivity in ABA-BSA immunized Hartley Guinea pigs assessed as reduction in skin lesions at 100 ug measured for 24 hrs; format: functional; settings: dose 100 µg
Cavia porcellus [10] = organism: Cavia porcellus; test: Induction of delayed type hypersensitivity in ABA-BSA immunized Hartley Guinea pigs assessed as reduction in skin lesions at 100 ug measured for 48 hrs; format: functional; settings: dose 100 µg

Nucleotide-binding oligomerization domain-containing protein 2, sequence (Q9HC29 whole entry, the tested form may be a part): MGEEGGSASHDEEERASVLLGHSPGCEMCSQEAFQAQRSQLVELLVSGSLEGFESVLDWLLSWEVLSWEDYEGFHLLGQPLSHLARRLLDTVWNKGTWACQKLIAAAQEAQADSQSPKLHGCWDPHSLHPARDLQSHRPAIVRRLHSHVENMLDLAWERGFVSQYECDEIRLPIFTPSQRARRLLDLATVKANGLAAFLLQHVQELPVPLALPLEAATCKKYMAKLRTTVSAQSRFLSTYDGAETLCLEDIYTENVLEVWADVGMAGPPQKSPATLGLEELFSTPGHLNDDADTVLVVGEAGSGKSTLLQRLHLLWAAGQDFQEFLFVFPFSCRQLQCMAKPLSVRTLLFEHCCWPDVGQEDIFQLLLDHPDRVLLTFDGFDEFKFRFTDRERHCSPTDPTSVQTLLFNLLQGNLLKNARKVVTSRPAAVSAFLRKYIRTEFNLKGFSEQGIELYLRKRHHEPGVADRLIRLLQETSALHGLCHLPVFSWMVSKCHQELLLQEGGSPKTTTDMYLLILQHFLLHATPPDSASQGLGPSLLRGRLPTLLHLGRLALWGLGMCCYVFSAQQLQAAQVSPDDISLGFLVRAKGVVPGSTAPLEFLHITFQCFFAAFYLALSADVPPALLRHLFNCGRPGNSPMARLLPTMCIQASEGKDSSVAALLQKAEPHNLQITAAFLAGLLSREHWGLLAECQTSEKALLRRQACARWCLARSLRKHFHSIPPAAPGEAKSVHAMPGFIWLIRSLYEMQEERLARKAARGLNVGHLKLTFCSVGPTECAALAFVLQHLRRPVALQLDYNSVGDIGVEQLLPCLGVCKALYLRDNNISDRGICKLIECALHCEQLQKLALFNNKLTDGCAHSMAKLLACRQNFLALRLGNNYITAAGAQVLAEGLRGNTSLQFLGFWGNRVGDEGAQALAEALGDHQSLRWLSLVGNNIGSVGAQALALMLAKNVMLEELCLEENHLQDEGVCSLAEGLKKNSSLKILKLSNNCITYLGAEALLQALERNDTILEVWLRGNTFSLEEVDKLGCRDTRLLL
T1 sequence (P19838 whole entry, looked up): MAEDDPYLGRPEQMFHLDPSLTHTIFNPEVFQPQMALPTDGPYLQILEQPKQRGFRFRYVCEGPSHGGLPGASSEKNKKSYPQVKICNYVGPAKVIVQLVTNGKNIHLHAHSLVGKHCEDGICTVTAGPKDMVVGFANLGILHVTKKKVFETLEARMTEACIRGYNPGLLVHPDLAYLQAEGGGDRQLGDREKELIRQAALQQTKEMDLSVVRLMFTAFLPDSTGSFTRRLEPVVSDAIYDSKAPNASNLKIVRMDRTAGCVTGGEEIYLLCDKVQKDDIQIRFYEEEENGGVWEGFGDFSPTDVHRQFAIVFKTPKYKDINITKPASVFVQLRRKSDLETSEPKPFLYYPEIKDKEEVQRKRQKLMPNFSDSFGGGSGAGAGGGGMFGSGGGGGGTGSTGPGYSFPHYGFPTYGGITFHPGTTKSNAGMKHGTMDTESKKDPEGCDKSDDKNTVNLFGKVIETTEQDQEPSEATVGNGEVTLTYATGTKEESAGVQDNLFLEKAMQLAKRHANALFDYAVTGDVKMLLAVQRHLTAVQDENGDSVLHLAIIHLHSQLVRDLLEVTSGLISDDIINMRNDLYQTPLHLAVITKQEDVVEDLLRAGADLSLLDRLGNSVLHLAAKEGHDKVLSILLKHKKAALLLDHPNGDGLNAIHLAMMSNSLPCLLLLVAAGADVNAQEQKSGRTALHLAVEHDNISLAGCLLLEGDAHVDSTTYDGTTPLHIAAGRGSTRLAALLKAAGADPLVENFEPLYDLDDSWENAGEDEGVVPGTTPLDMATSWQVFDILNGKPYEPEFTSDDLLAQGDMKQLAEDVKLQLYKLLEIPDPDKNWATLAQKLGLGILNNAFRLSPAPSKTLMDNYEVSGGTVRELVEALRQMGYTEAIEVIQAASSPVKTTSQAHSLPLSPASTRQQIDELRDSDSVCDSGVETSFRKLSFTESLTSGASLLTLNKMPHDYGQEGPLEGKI
T1 sequence (Q00653 whole entry, looked up): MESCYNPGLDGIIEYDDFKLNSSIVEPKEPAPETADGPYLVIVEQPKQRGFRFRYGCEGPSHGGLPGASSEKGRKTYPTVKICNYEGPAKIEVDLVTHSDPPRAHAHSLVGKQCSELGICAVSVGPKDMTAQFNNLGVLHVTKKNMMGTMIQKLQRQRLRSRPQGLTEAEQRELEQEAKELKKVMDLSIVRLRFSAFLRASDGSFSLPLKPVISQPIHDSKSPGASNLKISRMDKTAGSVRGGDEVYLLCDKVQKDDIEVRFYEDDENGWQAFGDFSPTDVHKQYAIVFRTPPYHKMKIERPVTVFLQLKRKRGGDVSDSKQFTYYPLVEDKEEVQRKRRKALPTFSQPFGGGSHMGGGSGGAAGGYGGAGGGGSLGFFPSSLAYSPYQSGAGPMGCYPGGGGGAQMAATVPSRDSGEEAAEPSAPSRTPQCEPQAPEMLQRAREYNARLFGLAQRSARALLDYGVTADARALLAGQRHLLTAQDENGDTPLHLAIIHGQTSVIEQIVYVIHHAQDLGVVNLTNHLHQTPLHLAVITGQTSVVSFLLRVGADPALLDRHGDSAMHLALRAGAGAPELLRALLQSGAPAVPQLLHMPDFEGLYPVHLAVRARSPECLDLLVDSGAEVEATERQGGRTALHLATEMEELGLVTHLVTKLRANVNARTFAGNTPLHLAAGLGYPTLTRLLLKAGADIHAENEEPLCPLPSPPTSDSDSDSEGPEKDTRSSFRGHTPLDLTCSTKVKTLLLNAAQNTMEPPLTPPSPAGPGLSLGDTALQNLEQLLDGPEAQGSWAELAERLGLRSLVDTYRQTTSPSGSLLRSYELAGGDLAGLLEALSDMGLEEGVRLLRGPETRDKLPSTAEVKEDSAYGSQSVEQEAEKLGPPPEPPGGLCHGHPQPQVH
T1 sequence (Q04206 whole entry, looked up): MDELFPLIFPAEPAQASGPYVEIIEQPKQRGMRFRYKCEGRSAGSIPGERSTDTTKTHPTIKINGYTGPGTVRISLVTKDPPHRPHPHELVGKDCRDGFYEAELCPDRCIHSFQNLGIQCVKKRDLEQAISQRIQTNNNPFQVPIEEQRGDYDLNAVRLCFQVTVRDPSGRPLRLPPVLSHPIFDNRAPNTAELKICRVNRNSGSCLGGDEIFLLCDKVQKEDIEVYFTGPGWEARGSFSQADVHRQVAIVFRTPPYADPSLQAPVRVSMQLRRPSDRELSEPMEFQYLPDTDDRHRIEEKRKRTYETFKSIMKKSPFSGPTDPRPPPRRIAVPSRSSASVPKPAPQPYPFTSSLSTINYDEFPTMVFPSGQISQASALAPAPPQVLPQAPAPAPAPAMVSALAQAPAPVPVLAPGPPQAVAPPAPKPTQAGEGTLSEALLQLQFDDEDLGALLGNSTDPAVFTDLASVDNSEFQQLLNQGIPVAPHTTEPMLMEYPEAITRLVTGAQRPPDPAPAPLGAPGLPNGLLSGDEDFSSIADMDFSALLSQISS

fold change (FC) [1]: 1.8 | fold change (FC) [2]: 1.15 | fold change (FC) [3]: 5
Structure (SMILES): CC(=O)N[C@@H]1[C@@H](O[C@H](C)C(=O)N[C@H](C(=O)N[C@H](CCC(=O)O)C(N)=O)[C@@H](C)O)[C@H](O)[C@@H](CO)O[C@H]1O

Activity [4]: 80 mU
Structure (SMILES): CCO[C@@H]1O[C@H](CO)[C@@H](O[C@@H]2O[C@H](CO)[C@@H](O[C@@H]3O[C@H](CO)[C@@H](O[C@@H]4O[C@H](CO)[C@@H](O)[C@H](O)[C@H]4NC(C)=O)[C@H](O[C@H](C)C(=O)N[C@@H](C)C(=O)N[C@H](CCC(=O)O)C(N)=O)[C@H]3NC(C)=O)[C@H](O)[C@H]2NC(C)=O)[C@H](O[C@H](C)C(=O)N[C@@H](C)C(=O)N[C@H](CCC(=O)O)C(N)=O)[C@H]1NC(C)=O

fold change (FC) [5]: 1.1
Structure (SMILES): CC(=O)N[C@@H]1[C@@H](O[C@H](C)C(=O)N[C@@H](C)C(=O)N[C@@H](CCC(=O)O)C(N)=O)[C@H](O)[C@@H](CN)O[C@H]1O

fold change (FC) [6]: 1.1 | fold change (FC) [7]: 1.2 | fold change (FC) [8]: 1.35
Structure (SMILES): CC(=O)N[C@H]1[C@H](OCc2ccccc2)O[C@H](CO)[C@@H](N)[C@@H]1O[C@H](C)C(=O)N[C@@H](C)C(=O)N[C@H](CCC(=O)O)C(N)=O

fold change (FC) [6]: 1.1 | fold change (FC) [7]: 1.15 | fold change (FC) [8]: 1.55
Structure (SMILES): COc1ccc(CC(=O)NCc2cn([C@H]3[C@H](O[C@H](C)C(=O)N[C@@H](C)C(=O)N[C@H](CCC(=O)O)C(N)=O)[C@@H](NC(C)=O)[C@H](O)O[C@@H]3CO)nn2)cc1

Activity [4]: 900 mU
Structure (SMILES): CC(=O)N[C@@H]1[C@@H](O)[C@H](O[C@@H]2O[C@H](CO)[C@@H](O)[C@H](O[C@H](C)C(=O)N[C@@H](C)C(=O)N[C@H](CCC(=O)O)C(N)=O)[C@H]2NC(C)=O)[C@@H](CO)O[C@H]1O

fold change (FC) [1]: 1.5 | fold change (FC) [2]: 1.1 | fold change (FC) [3]: 3
Structure (SMILES): CC(=O)N[C@@H]1[C@@H](O[C@H](C)C(=O)N(C)[C@@H](C)C(=O)N[C@H](CCC(=O)O)C(N)=O)[C@H](O)[C@@H](CO)O[C@H]1O

Activity [4]: 30 mU
Structure (SMILES): CCO[C@@H]1O[C@H](CO)[C@@H](O[C@@H]2O[C@H](CO)[C@@H](O[C@@H]3O[C@H](CO)[C@@H](O[C@@H]4O[C@H](CO)[C@@H](O)[C@H](O[C@H](C)C(=O)N[C@@H](C)C(=O)N[C@H](CCC(=O)N[C@@H](CCCCN)C(=O)O)C(N)=O)[C@H]4NC(C)=O)[C@H](O)[C@H]3NC(C)=O)[C@H](O[C@H](C)C(=O)N[C@@H](C)C(=O)N[C@H](CCC(=O)N[C@@H](CCCCN)C(=O)O)C(N)=O)[C@H]2NC(C)=O)[C@H](O)[C@H]1NC(C)=O

fold change (FC) [1]: 1 | fold change (FC) [2]: 1.05 | fold change (FC) [3]: 1.1
Structure (SMILES): CC(=O)N[C@@H]1[C@@H](O[C@H](C)C(=O)N[C@@H](C(=O)N[C@H](CCC(=O)O)C(N)=O)C(C)C)[C@H](O)[C@@H](CO)O[C@H]1O

fold change (FC) [5]: 3
Structure (SMILES): CC(=O)N[C@@H]1[C@@H](O[C@H](C)C(=O)N[C@@H](C)C(=O)N[C@H](CCC(=O)O)C(N)=O)[C@H](O)[C@@H](CNC(=O)CCOCCOCCOCCOCCOCCOCCOCCOCCOCCOCCOCCOCCNC(=O)CCCC[C@@H]2SC[C@@H]3NC(=O)N[C@@H]32)O[C@H]1O

fold change (FC) [1]: 1.3 | fold change (FC) [2]: 2.8 | fold change (FC) [3]: 9.8
Structure (SMILES): CC(=O)N[C@@H]1[C@@H](O[C@H](C)C(=O)NCC(=O)N[C@H](CCC(=O)O)C(N)=O)[C@H](O)[C@@H](CO)O[C@H]1O

fold change (FC) [5]: 9.15
Structure (SMILES): CC(=O)N[C@@H]1[C@@H](O[C@H](C)C(=O)N[C@@H](C)C(=O)N[C@H](CCC(=O)O)C(N)=O)[C@H](O)[C@@H](CN)O[C@H]1O
Activity (Cavia porcellus [9]): 17.3 mm | Activity (Cavia porcellus [10]): 10.9 mm

fold change (FC) [6]: 1.3 | fold change (FC) [7]: 1.65 | fold change (FC) [8]: 3.15
Structure (SMILES): CC(=O)N[C@H]1[C@H](OCc2ccccc2)O[C@H](CO)[C@@H](N=[N+]=[N-])[C@@H]1O[C@H](C)C(=O)N[C@@H](C)C(=O)N[C@H](CCC(=O)O)C(N)=O

fold change (FC) [5]: 1.05
Structure (SMILES): CC(=O)N[C@@H]1[C@@H](O[C@H](C)C(=O)N[C@@H](C)C(=O)N[C@@H](CCC(=O)O)C(N)=O)[C@H](O)[C@@H](CNC(=O)CCOCCOCCOCCOCCOCCOCCOCCOCCOCCOCCOCCOCCNC(=O)CCCC[C@@H]2SC[C@@H]3NC(=O)N[C@@H]32)O[C@H]1O

Activity [4]: 800 mU
Structure (SMILES): CCO[C@@H]1O[C@H](CO)[C@@H](O[C@@H]2O[C@H](CO)[C@@H](O[C@@H]3O[C@H](CO)[C@@H](O[C@@H]4O[C@H](CO)[C@@H](O)[C@H](O[C@H](C)C(=O)N[C@@H](C)C(=O)N[C@H](CCC(=O)O)C(N)=O)[C@H]4NC(C)=O)[C@H](O)[C@H]3NC(C)=O)[C@H](O[C@H](C)C(=O)N[C@@H](C)C(=O)N[C@H](CCC(=O)O)C(N)=O)[C@H]2NC(C)=O)[C@H](O)[C@H]1NC(C)=O
